Results taken from ChEMBL document CHEMBL5523766 (J Med Chem, 2024).

Experiments:
[1] = target: ATR/ATRIP (Homo sapiens, UniProt Q13535); test: Inhibition of ATR/ATRIP (unknown origin) using 5-FAM-AK-17 as substrate preincubated with compound for 10 mins followed by ATP addition and measured after 240 mins by mobility shift assay; format: protein-complex assay
[2] = target: T1, Serine/threonine-protein kinase mTOR (Homo sapiens, UniProt P42345); test: Inhibition of human mTOR at 10 uM relative to control
[3] = target: NUAK family SNF1-like kinase 1 (Homo sapiens) (UniProt O60285); test: Inhibition of human ARK5 at 10 uM relative to control
[4] = target: T2, Tyrosine-protein kinase Lck (Homo sapiens, UniProt P06239); test: Inhibition of human LCK at 10 uM relative to control
Target sequence in this assay (P06239 2-509 limits assumed): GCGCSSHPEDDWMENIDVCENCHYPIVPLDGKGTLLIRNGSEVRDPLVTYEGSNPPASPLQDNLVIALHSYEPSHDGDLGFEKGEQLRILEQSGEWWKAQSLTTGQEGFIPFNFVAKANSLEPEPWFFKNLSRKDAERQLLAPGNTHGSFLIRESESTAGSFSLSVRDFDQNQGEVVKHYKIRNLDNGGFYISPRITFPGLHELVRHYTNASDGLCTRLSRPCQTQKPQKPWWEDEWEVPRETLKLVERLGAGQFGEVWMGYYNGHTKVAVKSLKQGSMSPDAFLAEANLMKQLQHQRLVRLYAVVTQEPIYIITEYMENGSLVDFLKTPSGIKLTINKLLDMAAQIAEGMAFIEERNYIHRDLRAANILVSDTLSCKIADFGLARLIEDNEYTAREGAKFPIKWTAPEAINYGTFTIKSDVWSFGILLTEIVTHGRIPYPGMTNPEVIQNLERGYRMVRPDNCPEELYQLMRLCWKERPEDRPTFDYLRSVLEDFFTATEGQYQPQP

[5] = target: T3, Tyrosine-protein kinase BTK (Homo sapiens, UniProt Q06187); test: Inhibition of human BTK at 10 uM relative to control
[6] = target: Tyrosine-protein kinase Mer (Homo sapiens) (UniProt Q12866); test: Inhibition of human MER at 10 uM relative to control
[7] = target: Serine/threonine-protein kinase BRSK2 (Homo sapiens) (UniProt Q8IWQ3); test: Inhibition of human BRSK2 at 10 uM relative to control
[8] = target: Interleukin-1 receptor-associated kinase 4 (Homo sapiens) (UniProt Q9NWZ3); test: Inhibition of human IRAK4 at 10 uM relative to control
[9] = target: T4, Aurora kinase B (Homo sapiens, UniProt Q96GD4); test: Inhibition of human Aurora B at 10 uM relative to control
[10] = target: T5, Tyrosine-protein kinase JAK1 (Homo sapiens, UniProt P23458); test: Inhibition of human JAK1 at 10 uM relative to control
[11] = target: T6, Cyclin-dependent kinase 2 (Homo sapiens, UniProt P24941); test: Inhibition of human CDK2 at 10 uM relative to control
[12] = target: AMPK alpha2/beta1/gamma1 (Homo sapiens) (UniProt P54646+P54619+Q9Y478); test: Inhibition of human AMPK alpha2/beta1/gamma1 at 10 uM relative to control; format: protein-complex assay
[13] = target: T7, Tyrosine-protein kinase Lyn (Homo sapiens, UniProt P07948); test: Inhibition of human LYN at 10 uM relative to control
[14] = target: Serine/threonine-protein kinase 17B (Homo sapiens) (UniProt O94768); test: Inhibition of human DRAK2 at 10 uM relative to control
[15] = target: Receptor-type tyrosine-protein kinase FLT3 (Homo sapiens) (UniProt P36888); test: Inhibition of human FLT3 at 10 uM relative to control
[16] = target: T1, Serine/threonine-protein kinase mTOR; test: Inhibition of human mTOR
[17] = target: NUAK family SNF1-like kinase 1 (Homo sapiens, UniProt O60285); test: Inhibition of human ARK5
[18] = target: T2, Tyrosine-protein kinase Lck; test: Inhibition of human LCK
Target sequence in this assay (P06239 whole entry): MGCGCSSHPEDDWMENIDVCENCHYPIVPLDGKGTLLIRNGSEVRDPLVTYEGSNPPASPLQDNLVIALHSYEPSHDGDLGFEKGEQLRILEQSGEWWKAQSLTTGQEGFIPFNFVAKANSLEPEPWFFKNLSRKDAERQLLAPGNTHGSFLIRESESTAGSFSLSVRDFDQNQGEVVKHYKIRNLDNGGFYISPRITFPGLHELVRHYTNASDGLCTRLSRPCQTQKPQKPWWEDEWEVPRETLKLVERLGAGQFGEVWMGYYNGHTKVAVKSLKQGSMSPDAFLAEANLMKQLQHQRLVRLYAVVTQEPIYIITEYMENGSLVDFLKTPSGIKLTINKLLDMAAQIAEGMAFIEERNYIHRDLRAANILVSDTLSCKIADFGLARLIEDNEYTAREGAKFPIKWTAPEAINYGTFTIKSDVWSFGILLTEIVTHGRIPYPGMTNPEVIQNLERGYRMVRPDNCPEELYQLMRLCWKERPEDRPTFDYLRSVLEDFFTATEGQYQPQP

[19] = target: T3, Tyrosine-protein kinase BTK; test: Inhibition of human BTK
[20] = target: Tyrosine-protein kinase Mer (Homo sapiens, UniProt Q12866); test: Inhibition of human MER
[21] = target: Tyrosine-protein kinase ABL1 (Homo sapiens, UniProt P00519); test: Inhibition of human ABL
[22] = target: Serine/threonine-protein kinase BRSK2 (Homo sapiens, UniProt Q8IWQ3); test: Inhibition of human BRSK2
[23] = target: Interleukin-1 receptor-associated kinase 4 (Homo sapiens, UniProt Q9NWZ3); test: Inhibition of human IRAK4
[24] = target: T4, Aurora kinase B; test: Inhibition of human Aurora B
[25] = target: T5, Tyrosine-protein kinase JAK1; test: Inhibition of human JAK1
[26] = target: T6, Cyclin-dependent kinase 2; test: Inhibition of human CDK2
[27] = target: AMPK alpha2/beta1/gamma1 (Homo sapiens, UniProt P54619+P54646+Q9Y478); test: Inhibition of human AMPK alpha2/beta1/gamma1; format: protein-complex assay
[28] = target: T7, Tyrosine-protein kinase Lyn; test: Inhibition of human LYN
[29] = target: Serine/threonine-protein kinase 17B (Homo sapiens, UniProt O94768); test: Inhibition of human DRAK2
[30] = target: Receptor-type tyrosine-protein kinase FLT3 (Homo sapiens, UniProt P36888); test: Inhibition of human FLT3
[31] = test system: Granta-519; test: Antiproliferative activity against human Granta-519 cells assessed as inhibition of cell growth incubated for 72 hrs by MTS assay; format: functional, cell-based; settings: Granta-519, 72 h
[32] = test system: A2780; test: Antiproliferative activity against human A2780 cells assessed as inhibition of cell growth incubated for 72 hrs by MTS assay; format: functional, cell-based; settings: A2780, 72 h
[33] = test system: OCI-Ly10; test: Antiproliferative activity against human OCI-Ly10 cells assessed as inhibition of cell growth incubated for 72 hrs by MTS assay; format: functional, cell-based; settings: OCI-Ly10, 72 h
[34] = test system: LoVo; test: Antiproliferative activity against human LoVo cells assessed as inhibition of cell growth incubated for 72 hrs by MTS assay; format: functional, cell-based
[35] = test system: HCT-116; test: Antiproliferative activity against human HCT-116 cells assessed as inhibition of cell growth incubated for 72 hrs by MTS assay; format: functional, cell-based; settings: HCT-116, 72 h
[36] = test system: NCI-H446; test: Antiproliferative activity against human NCI-H446 cells assessed as inhibition of cell growth incubated for 72 hrs by MTS assay; format: functional, cell-based; settings: NCI-H446, 72 h
[37] = test system: HT-29; test: Antiproliferative activity against human HT-29 cells assessed as inhibition of cell growth incubated for 72 hrs by MTS assay; format: functional, cell-based; settings: HT-29, 72 h
[38] = test system: SUD4; test: Antiproliferative activity against human SU-DHL-4 cells assessed as inhibition of cell growth incubated for 72 hrs by MTS assay; format: functional, cell-based; settings: SU-DHL-4, 72 h
[39] = test system: DLD-1; test: Antiproliferative activity against human DLD-1 cells assessed as inhibition of cell growth incubated for 72 hrs by MTS assay; format: functional, cell-based; settings: DLD-1, 72 h
[40] = test system: CAPAN-1; test: Antiproliferative activity against human CAPAN-1 cells assessed as inhibition of cell growth incubated for 72 hrs by MTS assay; format: functional, cell-based; settings: CAPAN-1, 72 h
[41] = test system: PC-3; test: Antiproliferative activity against human PC-3 cells assessed as inhibition of cell growth incubated for 72 hrs by MTS assay; format: functional, cell-based; settings: PC-3, 72 h
[42] = Lipophilicity, logD of compound at pH 7.4; format: physicochemical; settings: buffer
[43] = Plasma protein binding in mouse; format: ADME, cell-free; settings: read-out: PPB (converted)
[44] = Apparent permeability across apical to basolateral side in human Caco-2 cells; format: ADME, cell-based
[45] = Apparent permeability across basolateral to apical side in human Caco-2 cells; format: ADME, cell-based
[46] = Efflux ratio of apparent permeability across […] side in human Caco-2 cells; format: ADME, cell-based
[47] = Apparent permeability across apical to basolateral side in dog MDCK-MDR1 cells; format: ADME, cell-based, Canis lupus familiaris
[48] = Apparent permeability across basolateral to apical side in dog MDCK-MDR1 cells; format: ADME, cell-based, Canis lupus familiaris
[49] = Efflux ratio of apparent permeability across […] side in dog MDCK-MDR1 cells; format: ADME, cell-based, Canis lupus familiaris
[50] = target: CYP1A2 (Homo sapiens, UniProt P05177); test: Time dependent inhibition of CYP1A2 (unknown origin) at 10 uM relative to control; format: ADME; settings: read-out: TDI
[51] = target: CYP2C9 (Homo sapiens, UniProt P11712); test: Time dependent inhibition of CYP2C9 (unknown origin) at 10 uM relative to control; format: ADME; settings: read-out: TDI
[52] = AUClast in ICR mouse at 50 mg/kg,po measured upto 24 hrs by LC-MS/MS analysis; format: ADME, organism-based; settings: in vivo
[53] = target: CYP2C19 (Homo sapiens, UniProt P33261); test: Time dependent inhibition of CYP2C19 (unknown origin) at 10 uM relative to control; format: ADME; settings: read-out: TDI
[54] = target: CYP2D6 (Homo sapiens, UniProt P10635); test: Time dependent inhibition of CYP2D6 (unknown origin) at 10 uM relative to control; format: ADME; settings: read-out: TDI
[55] = target: CYP3A4 (Homo sapiens, UniProt P08684); test: Time dependent inhibition of CYP3A4 (unknown origin) at 10 uM relative to control; format: ADME; settings: read-out: TDI
[56] = Half life in ICR mouse at 50 mg/kg,po measured upto 24 hrs by LC-MS/MS analysis; format: ADME, organism-based; settings: in vivo
[57] = Tmax in ICR mouse at 50 mg/kg,po measured upto 24 hrs by LC-MS/MS analysis; format: ADME, organism-based; settings: in vivo
[58] = Cmax in ICR mouse at 50 mg/kg,po measured upto 24 hrs by LC-MS/MS analysis; format: ADME, organism-based; settings: in vivo
[59] = AUCinfinity in ICR mouse at 50 mg/kg,po measured upto 24 hrs by LC-MS/MS analysis; format: ADME, organism-based; settings: in vivo

T3 sequence (Q06187 whole entry): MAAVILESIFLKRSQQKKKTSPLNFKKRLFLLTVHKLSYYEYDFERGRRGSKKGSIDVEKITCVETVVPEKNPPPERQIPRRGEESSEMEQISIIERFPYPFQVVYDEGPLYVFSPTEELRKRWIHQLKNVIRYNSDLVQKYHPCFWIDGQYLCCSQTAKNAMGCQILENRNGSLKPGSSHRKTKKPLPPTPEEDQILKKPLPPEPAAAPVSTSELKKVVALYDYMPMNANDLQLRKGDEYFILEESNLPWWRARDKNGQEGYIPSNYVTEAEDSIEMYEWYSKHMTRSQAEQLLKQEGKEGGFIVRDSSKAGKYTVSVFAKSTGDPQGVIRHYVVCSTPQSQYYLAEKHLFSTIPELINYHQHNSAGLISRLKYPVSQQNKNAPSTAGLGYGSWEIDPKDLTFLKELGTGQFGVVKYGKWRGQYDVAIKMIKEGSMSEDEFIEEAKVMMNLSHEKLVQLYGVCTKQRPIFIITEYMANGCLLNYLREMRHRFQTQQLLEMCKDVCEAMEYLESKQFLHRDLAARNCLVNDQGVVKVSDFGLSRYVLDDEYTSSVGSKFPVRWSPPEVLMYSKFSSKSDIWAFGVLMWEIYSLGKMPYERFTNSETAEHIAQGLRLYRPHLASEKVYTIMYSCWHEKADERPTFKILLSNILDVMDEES
T4 sequence (Q96GD4 whole entry): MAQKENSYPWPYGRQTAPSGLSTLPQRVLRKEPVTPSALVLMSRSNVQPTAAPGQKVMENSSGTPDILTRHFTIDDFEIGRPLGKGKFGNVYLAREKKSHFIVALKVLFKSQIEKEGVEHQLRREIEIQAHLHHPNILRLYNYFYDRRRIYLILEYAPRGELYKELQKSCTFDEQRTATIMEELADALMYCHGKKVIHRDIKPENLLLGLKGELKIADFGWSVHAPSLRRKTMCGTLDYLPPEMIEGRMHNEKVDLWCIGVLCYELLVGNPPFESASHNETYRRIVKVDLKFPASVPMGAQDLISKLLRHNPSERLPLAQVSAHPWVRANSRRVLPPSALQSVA
T5 sequence (P23458 whole entry): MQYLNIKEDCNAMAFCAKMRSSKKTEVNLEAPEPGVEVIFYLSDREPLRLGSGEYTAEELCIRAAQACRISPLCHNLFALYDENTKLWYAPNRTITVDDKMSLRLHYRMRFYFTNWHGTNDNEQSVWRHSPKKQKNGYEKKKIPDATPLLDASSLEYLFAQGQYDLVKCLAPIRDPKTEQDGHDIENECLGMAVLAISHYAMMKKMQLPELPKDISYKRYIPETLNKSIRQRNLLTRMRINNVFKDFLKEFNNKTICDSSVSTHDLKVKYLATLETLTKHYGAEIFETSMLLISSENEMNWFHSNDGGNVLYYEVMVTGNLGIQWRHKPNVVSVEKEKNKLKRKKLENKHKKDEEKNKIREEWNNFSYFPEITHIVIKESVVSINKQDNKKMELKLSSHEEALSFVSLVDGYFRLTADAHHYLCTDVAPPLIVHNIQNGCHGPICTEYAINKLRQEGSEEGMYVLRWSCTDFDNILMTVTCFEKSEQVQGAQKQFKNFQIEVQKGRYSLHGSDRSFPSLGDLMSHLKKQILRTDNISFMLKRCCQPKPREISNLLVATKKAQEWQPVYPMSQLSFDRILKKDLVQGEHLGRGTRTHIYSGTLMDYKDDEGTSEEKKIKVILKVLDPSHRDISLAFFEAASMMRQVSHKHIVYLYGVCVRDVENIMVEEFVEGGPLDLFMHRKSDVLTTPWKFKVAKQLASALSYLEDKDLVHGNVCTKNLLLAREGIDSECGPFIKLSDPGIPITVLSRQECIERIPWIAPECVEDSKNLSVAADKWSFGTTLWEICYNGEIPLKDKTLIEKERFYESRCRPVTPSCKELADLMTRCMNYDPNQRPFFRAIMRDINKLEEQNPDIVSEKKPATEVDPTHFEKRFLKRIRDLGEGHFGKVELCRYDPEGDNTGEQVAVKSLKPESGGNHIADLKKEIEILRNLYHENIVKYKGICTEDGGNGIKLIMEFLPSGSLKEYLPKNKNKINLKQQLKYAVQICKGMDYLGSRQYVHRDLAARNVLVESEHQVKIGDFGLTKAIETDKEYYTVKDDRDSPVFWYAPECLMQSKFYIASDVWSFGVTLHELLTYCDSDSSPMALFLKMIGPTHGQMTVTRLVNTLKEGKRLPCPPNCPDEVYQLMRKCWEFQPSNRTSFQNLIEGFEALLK
Chain of CYP3A4 (P08684 whole entry): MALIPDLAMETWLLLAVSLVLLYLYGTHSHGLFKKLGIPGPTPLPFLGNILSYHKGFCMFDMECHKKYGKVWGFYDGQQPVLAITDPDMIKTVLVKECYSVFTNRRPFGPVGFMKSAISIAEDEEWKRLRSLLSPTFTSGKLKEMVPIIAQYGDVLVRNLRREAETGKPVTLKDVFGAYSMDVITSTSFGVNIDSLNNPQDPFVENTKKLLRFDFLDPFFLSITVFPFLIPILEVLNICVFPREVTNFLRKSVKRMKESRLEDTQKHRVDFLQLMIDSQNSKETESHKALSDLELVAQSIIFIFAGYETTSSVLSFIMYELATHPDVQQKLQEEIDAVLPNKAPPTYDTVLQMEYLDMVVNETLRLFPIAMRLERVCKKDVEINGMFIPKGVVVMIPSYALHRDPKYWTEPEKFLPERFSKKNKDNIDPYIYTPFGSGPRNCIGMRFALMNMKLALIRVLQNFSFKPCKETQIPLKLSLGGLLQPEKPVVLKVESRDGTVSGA
Chain of CYP2C19 (P33261 whole entry): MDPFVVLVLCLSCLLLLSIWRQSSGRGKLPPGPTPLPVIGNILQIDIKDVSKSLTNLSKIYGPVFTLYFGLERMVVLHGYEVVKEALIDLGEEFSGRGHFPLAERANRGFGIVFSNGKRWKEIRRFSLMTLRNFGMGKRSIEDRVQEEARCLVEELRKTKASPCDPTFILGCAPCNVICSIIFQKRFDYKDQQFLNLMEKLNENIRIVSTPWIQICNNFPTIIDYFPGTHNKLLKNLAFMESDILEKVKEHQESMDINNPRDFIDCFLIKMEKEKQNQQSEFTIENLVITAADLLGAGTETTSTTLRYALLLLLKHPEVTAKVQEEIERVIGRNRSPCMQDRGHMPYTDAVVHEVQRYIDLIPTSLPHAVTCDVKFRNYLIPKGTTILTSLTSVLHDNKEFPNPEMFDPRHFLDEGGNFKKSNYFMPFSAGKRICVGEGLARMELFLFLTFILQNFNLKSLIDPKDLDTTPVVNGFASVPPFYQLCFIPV
Chain of CYP1A2 (P05177 whole entry): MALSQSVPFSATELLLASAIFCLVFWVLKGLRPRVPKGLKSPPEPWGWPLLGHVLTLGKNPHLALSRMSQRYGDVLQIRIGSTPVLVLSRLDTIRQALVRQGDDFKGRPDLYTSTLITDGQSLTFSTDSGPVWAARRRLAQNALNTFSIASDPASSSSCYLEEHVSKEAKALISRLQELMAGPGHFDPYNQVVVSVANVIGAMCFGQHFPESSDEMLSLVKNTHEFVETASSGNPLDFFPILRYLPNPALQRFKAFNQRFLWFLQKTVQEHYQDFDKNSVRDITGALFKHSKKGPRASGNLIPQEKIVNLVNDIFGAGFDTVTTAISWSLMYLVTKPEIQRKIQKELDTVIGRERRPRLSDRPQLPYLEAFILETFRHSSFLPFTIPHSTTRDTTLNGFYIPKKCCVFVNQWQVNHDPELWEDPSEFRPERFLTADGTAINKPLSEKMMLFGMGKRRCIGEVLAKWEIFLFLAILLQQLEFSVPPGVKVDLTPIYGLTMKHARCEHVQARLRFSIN

IC50 [1]: 0.0016 µM | inhibition [2]: 102% | inhibition [3]: 20.5% | inhibition [4]: 79.2% | inhibition [5]: 41.8% | inhibition [6]: 35.7% | inhibition [7]: 21.6% | inhibition [8]: 46.1% | inhibition [9]: 22.5% | inhibition [10]: 29.5% | inhibition [11]: 5.98% | inhibition [12]: 1.11% | inhibition [13]: 13.3% | inhibition [14]: 24.6% | inhibition [15]: 62.8% | IC50 [16]: 0.0224 µM | IC50 [17]: > 10 µM | IC50 [18]: 4.95 µM | IC50 [19]: > 10 µM | IC50 [20]: > 10 µM | IC50 [21]: > 10 µM | IC50 [22]: > 10 µM | IC50 [23]: > 10 µM | IC50 [24]: > 10 µM | IC50 [25]: > 10 µM | IC50 [26]: > 10 µM | IC50 [27]: > 10 µM | IC50 [28]: > 10 µM | IC50 [29]: > 10 µM | IC50 [30]: > 10 µM | IC50 [32]: 0.09 µM | IC50 [33]: 0.1 µM | IC50 [34]: 0.15 µM | IC50 [35]: 0.15 µM | IC50 [36]: 0.23 µM | IC50 [37]: 0.35 µM | IC50 [39]: 0.46 µM | IC50 [41]: 0.78 µM | logD [42]: 3.11 | fraction unbound [43]: 0.006 | Papp A→B [44]: 21.5 ×10⁻⁶ cm/s | Papp B→A [45]: 30.2 ×10⁻⁶ cm/s | efflux ratio [46]: 1.41 | Papp A→B [47]: 6.02 ×10⁻⁶ cm/s | Papp B→A [48]: 29 ×10⁻⁶ cm/s | efflux ratio [49]: 4.81 | inhibition at 10 µM [50]: 28.6% | inhibition at 10 µM [51]: 0% | AUC(0-t) at 24 h [52]: 46700 ng·h/mL | inhibition at 10 µM [53]: 0% | inhibition at 10 µM [54]: 3.71% | inhibition at 10 µM [55]: 18.6% | half-life [56]: 2.01 h | Tmax [57]: 0.5 h | Cmax [58]: 18900 ng/mL | AUC(0-inf) [59]: 46700 ng·h/mL
SMILES: C[C@@H]1COCCN1c1nc(-c2cncc3[nH]ccc23)nc2c1ccn2S(C)(=O)=O
IC50 [31]: 0.1 µM | IC50 [38]: 0.3 µM | IC50 [40]: 0.82 µM
